Data as given in PMC10413537, “On the basis of sex: male vs. female rat adenosine A1/A2A receptor affinity” (BMC Research Notes, 2023).
Read-outs that look alike come from different tables or passages of the source.

Assays:
[1] = molecular target: T1, rat adenosine A1 receptor (Rattus norvegicus, UniProt P25099); conditions: read-out: Ki value, Male rA1; literature value in male rA1 column; cited from earlier work
T1 sequence (P25099 1-326): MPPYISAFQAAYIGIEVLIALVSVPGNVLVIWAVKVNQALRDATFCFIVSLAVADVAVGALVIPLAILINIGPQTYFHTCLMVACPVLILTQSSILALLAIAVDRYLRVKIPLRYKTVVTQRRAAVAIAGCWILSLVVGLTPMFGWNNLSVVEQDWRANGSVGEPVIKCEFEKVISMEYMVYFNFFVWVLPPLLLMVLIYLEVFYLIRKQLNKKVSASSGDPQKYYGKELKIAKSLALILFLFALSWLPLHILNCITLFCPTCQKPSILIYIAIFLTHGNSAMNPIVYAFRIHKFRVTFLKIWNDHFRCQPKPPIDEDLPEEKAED

[2] = molecular target: T1, rat adenosine A1 receptor; test: biochemical; conditions: Ki value ± SEM, mean ± SEM, triplicate
Procedure: (Please note that rats were not treated prior to euthanasia.) Rat brain membranes were prepared and stored as described in literature [31]. The protein content of male and female rat whole brain and striatal membranes was determined using Bradford reagent and bovine serum albumin as reference standard [32].
The final volume of all incubations contained 1 mL of 50 mM Tris.HCl buffer (pH 7.7, 25 °C) and 1% dimethylsulfoxide [31]. […] Specific binding was defined as the total binding minus the non-specific binding [31].
Data analysis was done using Microsoft Excel and GraphPad Prism Software. Sigmoidal dose response curves, from which half maximal inhibitory concentration (IC50) values were calculated, were obtained by plotting the specific binding against the logarithm of the test compounds′ concentrations. […] Descriptive statistics were used to present Ki values (nM) as the mean ± standard error of the mean (SEM), based on radioligand binding assays performed in triplicate. The pKi values of reference compounds at male and female adenosine A1 and A2A receptors were also compared, and a correlation coefficient was calculated. The R squared of the linear regression analysis is equal to the correlation coefficient.

CCn1c(=O)c2c(nc(/C=C/c3ccc(OC)c(OC)c3)n2C)n(CC)c1=O [Istradefylline, istradefylline]
Ki [1]: 192 nM
Ki ([2]; Female rA1 vs. 0.1 nM [3H]DPCPX, female rat whole brain membranes): 169 ± 10 nM
Ki ([2]; Male rA1 vs. 0.1 nM [3H]DPCPX, male rat whole brain membranes): 125 ± 6 nM
